# Several values for one entry are separate records, joined by “and”; a condition that tells them apart may be missing. Equal values may be shown once. Read-outs that look alike come from different tables or passages of the source.
# Tests used:
# [1] = Solubility of Form A in various solvents at 25° C. and 50° C.; type: physicochemical; settings: thermodynamic from solid
# Method: The solubility of Form A of Compound 1 was evaluated at 25° C. and 50° C. in various solvents.
# [2] = pKa by iterative titration with 1M sodium hydroxide; type: physicochemical; settings: free base form; for pKa: Measurements #1-#3
# Method: The pKa of NRL-1049 in free base form was measured in triplicate by iterative titration with 1M sodium hydroxide solution. A plot of the pH versus the volume of the titrant was used to calculate the pKa, wherein the pKa was taken as 50% of the inflection point.
smiles,measurement,setting,value
"C[C@@H](N)C1CCN(S(=O)(=O)c2cccc3cnccc23)CC1 [NRL-1049 (R), (R)-1-(1-(isoquinolin-5-ylsulfonyl)piperidin-4-yl)ethan-1-amine]",solubility,"[1]; 1,4-dioxane, 25 °C, organic solvent or mixture, read-out: Solubility at 25° C.",1.5 mg/mL
same,solubility,"[1]; 1,4-dioxane, 50 °C, organic solvent or mixture, read-out: Solubility at 50° C.",11.9 mg/mL
same,solubility,"[1]; 2-methoxyethanol, 25 °C, organic solvent or mixture, read-out: Solubility at 25° C.",> 50 mg/mL
same,solubility,"[1]; 2-methoxyethanol, 50 °C, organic solvent or mixture, read-out: Solubility at 50° C.",> 50 mg/mL
same,solubility,"[1]; acetone, 25 °C, organic solvent or mixture, read-out: Solubility at 25° C.",15.9 mg/mL
same,solubility,"[1]; acetone, 50 °C, organic solvent or mixture, read-out: Solubility at 50° C.",45.3 mg/mL
same,solubility,"[1]; acetonitrile, 25 °C, organic solvent or mixture, read-out: Solubility at 25° C.",< 1 mg/mL
same,solubility,"[1]; acetonitrile, 50 °C, organic solvent or mixture, read-out: Solubility at 50° C.",< 1 mg/mL
same,solubility,"[1]; benzyl alcohol, 25 °C, organic solvent or mixture, read-out: Solubility at 25° C.",156 mg/mL
same,solubility,"[1]; chloroform, 25 °C, organic solvent or mixture, read-out: Solubility at 25° C.",> 50 mg/mL
same,solubility,"[1]; chloroform, 50 °C, organic solvent or mixture, read-out: Solubility at 50° C.",> 50 mg/mL
same,solubility,"[1]; dichloromethane, 25 °C, organic solvent or mixture, read-out: Solubility at 25° C.",< 1 mg/mL
same,solubility,"[1]; dichloromethane, 50 °C, organic solvent or mixture, read-out: Solubility at 50° C.",< 1 mg/mL
same,solubility,"[1]; dimethyl sulfoxide, 25 °C, organic solvent or mixture, read-out: Solubility at 25° C.",> 50 mg/mL
same,solubility,"[1]; dimethyl sulfoxide, 50 °C, organic solvent or mixture, read-out: Solubility at 50° C.",> 50 mg/mL
same,solubility,"[1]; dimethylformamide, 25 °C, organic solvent or mixture, read-out: Solubility at 25° C.",39.3 mg/mL
same,solubility,"[1]; dimethylformamide, 50 °C, organic solvent or mixture, read-out: Solubility at 50° C.",> 50 mg/mL
same,solubility,"[1]; ethanol, 25 °C, organic solvent or mixture, read-out: Solubility at 25° C.",12.3 mg/mL
same,solubility,"[1]; ethanol, 50 °C, organic solvent or mixture, read-out: Solubility at 50° C.",25.3 mg/mL
same,solubility,"[1]; ethyl acetate, 25 °C, organic solvent or mixture, read-out: Solubility at 25° C.",< 1 mg/mL
same,solubility,"[1]; ethyl acetate, 50 °C, organic solvent or mixture, read-out: Solubility at 50° C.",< 1 mg/mL
same,solubility,"[1]; ethyl formate, 25 °C, organic solvent or mixture, read-out: Solubility at 25° C.",13.7 mg/mL
same,solubility,"[1]; ethyl formate, 50 °C, organic solvent or mixture, read-out: Solubility at 50° C.",> 50 mg/mL
same,solubility,"[1]; iso-butyl acetate, 25 °C, organic solvent or mixture, read-out: Solubility at 25° C.",< 1 mg/mL
same,solubility,"[1]; iso-butyl acetate, 50 °C, organic solvent or mixture, read-out: Solubility at 50° C.",< 1 mg/mL
same,solubility,"[1]; iso-propanol, 25 °C, organic solvent or mixture, read-out: Solubility at 25° C.",0.5 mg/mL
same,solubility,"[1]; iso-propanol, 50 °C, organic solvent or mixture, read-out: Solubility at 50° C.",14.7 mg/mL
same,solubility,"[1]; iso-propyl acetate, 25 °C, organic solvent or mixture, read-out: Solubility at 25° C.",< 1 mg/mL
same,solubility,"[1]; iso-propyl acetate, 50 °C, organic solvent or mixture, read-out: Solubility at 50° C.",< 1 mg/mL
same,solubility,"[1]; medium chain triglyceride, 25 °C, oil or lipid, read-out: Solubility at 25° C.",0.1 mg/mL
same,solubility,"[1]; methanol, 25 °C, organic solvent or mixture, read-out: Solubility at 25° C.",> 50 mg/mL
same,solubility,"[1]; methanol, 50 °C, organic solvent or mixture, read-out: Solubility at 50° C.",> 50 mg/mL
same,solubility,"[1]; methyl ethyl ketone, 25 °C, organic solvent or mixture, read-out: Solubility at 25° C.",< 1 mg/mL
same,solubility,"[1]; methyl ethyl ketone, 50 °C, organic solvent or mixture, read-out: Solubility at 50° C.",1.5 mg/mL
same,solubility,"[1]; methyl iso-butyl ketone, 25 °C, organic solvent or mixture, read-out: Solubility at 25° C.",< 1 mg/mL
same,solubility,"[1]; methyl iso-butyl ketone, 50 °C, organic solvent or mixture, read-out: Solubility at 50° C.",< 1 mg/mL
same,solubility,"[1]; n-butyl alcohol, 25 °C, organic solvent or mixture, read-out: Solubility at 25° C.",1.6 mg/mL
same,solubility,"[1]; n-butyl alcohol, 50 °C, organic solvent or mixture, read-out: Solubility at 50° C.",7.5 mg/mL
same,solubility,"[1]; n-propanol, 25 °C, organic solvent or mixture, read-out: Solubility at 25° C.",1.6 mg/mL
same,solubility,"[1]; n-propanol, 50 °C, organic solvent or mixture, read-out: Solubility at 50° C.",23.4 mg/mL
same,solubility,"[1]; o-xylene, 25 °C, organic solvent or mixture, read-out: Solubility at 25° C.",< 1 mg/mL
same,solubility,"[1]; o-xylene, 50 °C, organic solvent or mixture, read-out: Solubility at 50° C.",< 1 mg/mL
same,solubility,"[1]; polyethylene glycol 300, 25 °C, organic solvent or mixture, read-out: Solubility at 25° C.",11 mg/mL
same,solubility,"[1]; propylene glycol, 25 °C, organic solvent or mixture, read-out: Solubility at 25° C.",84 mg/mL
same,solubility,"[1]; sesame oil, 25 °C, oil or lipid, read-out: Solubility at 25° C.",0.04 mg/mL
same,solubility,"[1]; tert-butyl methyl ether, 25 °C, organic solvent or mixture, read-out: Solubility at 25° C.",< 1 mg/mL
same,solubility,"[1]; tert-butyl methyl ether, 50 °C, organic solvent or mixture, read-out: Solubility at 50° C.",< 1 mg/mL
same,solubility,"[1]; tetrahydrofuran, 25 °C, organic solvent or mixture, read-out: Solubility at 25° C.",1.6 mg/mL
same,solubility,"[1]; tetrahydrofuran, 50 °C, organic solvent or mixture, read-out: Solubility at 50° C.",2 mg/mL
same,solubility,"[1]; toluene, 25 °C, organic solvent or mixture, read-out: Solubility at 25° C.",< 1 mg/mL
same,solubility,"[1]; toluene, 50 °C, organic solvent or mixture, read-out: Solubility at 50° C.",< 1 mg/mL
same,solubility,"[1]; water, 25 °C, water, read-out: Solubility at 25° C.",> 50 mg/mL
same,solubility,"[1]; water, 50 °C, water, read-out: Solubility at 50° C.",> 50 mg/mL
CC(N)C1CCN(S(=O)(=O)c2cccc3cnccc23)CC1 (stereo not shown) [NRL-1049],pKa average,[2]; Sample 1,1.8
same,pKa,[2]; Sample 1,1.73 and 1.81 and 1.83
same,pKa average,[2]; Sample 2,2.0
same,pKa average,[2]; Sample 3,1.9
same,pKa,[2]; Sample 3,1.89 and 1.87 and 1.98
